The results in this text go back to patent US12552825B2 (Zikani Therapeutics, Inc., priority 2019, dated 2026).

Holding throughout (assay type): cell-based
Assay [1] has as its system P. aeruginosa MP-3. The experiment in a line: MIC determination by CLSI broth dilution, P. aeruginosa MP-3. The note with it: Pseudomonas aeruginosa, MP3, strain MP-3. Background: In broth dilution the organism is exposed to a series of concentrations in liquid medium.
Assay [2] has as its system K. pneumoniae MP-546. The experiment in a line: MIC determination by CLSI broth dilution, K. pneumoniae MP-546. The note with it: strain MP-546; for MIC: Klebsiella pneumoniae, MP546, CLSI broth dilution.
Assay [3] concerns K. pneumoniae MP-648. The experiment in a line: MIC determination by CLSI broth dilution, K. pneumoniae MP-648. The following applies: strain MP-648; for MIC: Klebsiella pneumoniae, MP648, CLSI broth dilution.
For assay [4], the system named is A. baumannii MP-15. The experiment in a line: MIC determination by CLSI broth dilution, A. baumannii MP-15. The note with it: Acinetobacter baumannii, MP15, strain MP-15, read-out: MIC A. baumanii MP-15.
Assay [5] relates to E. coli MP-4. The experiment in a line: MIC determination by CLSI broth dilution, E. coli MP-4. The following applies: strain MP-4; for MIC: Escherichia coli, MP4, CLSI broth dilution.
Assay [6] concerns S. aureus MP-12. The experiment in a line: microbe, parasite or virus in culture. The following applies: Staphylococcus aureus, MP12, read-out: MIC S. aureus MP-12.

The structures appear in SMILES notation. Values after ≈ are worked out from the molar mass of the structure shown. Bounds are passed on as bounds.

`CCN1C[C@H](C)C[C@@](C)(OC)[C@H](O[C@@H]2O[C@H](C)C[C@H](N(C)C)[C@H]2O)[C@@H](C)C(=O)C(C)(C)C(=O)OC[C@H]1CCCN1CCCCC1` [Compound 140, (3R,6R,8R,9R,10R)-9-(((2S,3R,4S,6R)-4-(dimethylamino)-3-hydroxy-6-methyltetrahydro-2H-pyran-2-yl)oxy)-4-ethyl-8-methoxy-6,8,10,12,12-pentamethyl-3-(3-(piperidin-1-yl)propyl)-1-oxa-4-azacyclotridecane-11,13-dione]: the MIC in assay [1] is more than 32 µg/mL; in assay [2] it was less than 4 µg/mL; in assay [3] it was less than 4 µg/mL; in assay [4], more than 32 µg/mL; in assay [5] it was less than 4 µg/mL; in assay [6], 4 to 32 µg/mL (≈ 6.25 to 50 µM).

In the case of `CCN1C[C@H](C)C[C@@](C)(OC)[C@H](O[C@@H]2O[C@H](C)C[C@H](N(C)C)[C@H]2O)[C@@H](C)C(=O)C(C)(C)C(=O)OC[C@H]1CCCN1CCC[C@@H]1C` [Compound 88, (3R,6R,8R,9R,10R)-9-(((2S,3R,4S,6R)-4-(dimethylamino)-3-hydroxy-6-methyltetrahydro-2H-pyran-2-yl)oxy)-4-ethyl-8-methoxy-6,8,10,12,12-pentamethyl-3-(3-((S)-2-methylpyrrolidin-1-yl)propyl)-1-oxa-4-azacyclotridecane-11,13-dione], the MIC was more than 32 µg/mL in assay [1]; less than 4 µg/mL in assay [2]; less than 4 µg/mL in assay [3]; more than 32 µg/mL in assay [4]; less than 4 µg/mL in assay [5]; 4 to 32 µg/mL (≈ 6.25 to 50 µM) in assay [6].

`CO[C@]1(C)C[C@@H](C)CN(C)[C@@H](CCCO)COC(=O)C(C)(C)C(=O)[C@H](C)[C@H]1O[C@@H]1O[C@H](C)C[C@H](N(C)C)[C@H]1O` [Compound 4, (3S,6R,8R,9R,10R)-9-(((2S,3R,4S,6R)-4-(dimethylamino)-3-hydroxy-6-methyltetrahydro-2H-pyran-2-yl)oxy)-3-(3-hydroxypropyl)-8-methoxy-4,6,8,10,12,12-hexamethyl-1-oxa-4-azacyclotridecane-11,13-dione]: the MIC was more than 32 µg/mL in assay [1]; 4 to 32 µg/mL (≈ 7.16 to 57.3 µM) in assay [2]; 4 to 32 µg/mL (≈ 7.16 to 57.3 µM) in assay [3]; more than 32 µg/mL in assay [4]; less than 4 µg/mL in assay [5]; more than 32 µg/mL in assay [6].

With `CCN1C[C@H](C)C[C@@](C)(OC)[C@H](O[C@@H]2O[C@H](C)C[C@H](N(C)C)[C@H]2O)[C@@H](C)C(=O)C(C)(C)C(=O)OC[C@@H]1CCCN(C)C(C)C` [Compound 10, (3S,6R,8R,9R,10R)-9-(((2S,3R,4S,6R)-4-(dimethylamino)-3-hydroxy-6-methyltetrahydro-2H-pyran-2-yl)oxy)-4-ethyl-3-(3-(isopropyl(methyl)amino)propyl)-8-methoxy-6,8,10,12,12-pentamethyl-1-oxa-4-azacyclotridecane-11,13-dione], the MIC in assay [1] is more than 32 µg/mL; in assay [2], less than 4 µg/mL; in assay [3] it was less than 4 µg/mL; in assay [4], more than 32 µg/mL; in assay [5], less than 4 µg/mL; in assay [6], less than 4 µg/mL.

Regarding `CO[C@]1(C)C[C@@H](C)CN(C)[C@@H](CCCN2CCC(F)(F)CC2)COC(=O)C(C)(C)C(=O)[C@H](C)[C@H]1O[C@@H]1O[C@H](C)C[C@H](N(C)C)[C@H]1O` [Compound 110, (3S,6R,8R,9R,10R)-3-(3-(4,4-difluoropiperidin-1-yl)propyl)-9-(((2S,3R,4S,6R)-4-(dimethylamino)-3-hydroxy-6-methyltetrahydro-2H-pyran-2-yl)oxy)-8-methoxy-4,6,8,10,12,12-hexamethyl-1-oxa-4-azacyclotridecane-11,13-dione], the MIC in assay [1] is more than 32 µg/mL; in assay [2], 4 to 32 µg/mL (≈ 6.04 to 48.3 µM); in assay [3], 4 to 32 µg/mL (≈ 6.04 to 48.3 µM); in assay [4], more than 32 µg/mL; in assay [5], less than 4 µg/mL; in assay [6], 4 to 32 µg/mL (≈ 6.04 to 48.3 µM).

With `CO[C@]1(C)C[C@@H](C)CN(C)[C@@H](CCCN2Cc3ccccc3C2)COC(=O)C(C)(C)C(=O)[C@H](C)[C@H]1O[C@@H]1O[C@H](C)C[C@H](N(C)C)[C@H]1O` [Compound 112], the MIC in assay [1] is more than 32 µg/mL; in assay [2] it was less than 4 µg/mL; in assay [3] it was less than 4 µg/mL; in assay [4], 4 to 32 µg/mL (≈ 6.06 to 48.5 µM); in assay [5], less than 4 µg/mL; in assay [6], less than 4 µg/mL.

On to `CO[C@]1(C)C[C@@H](C)CN(C)[C@H](C[C@H]2C[C@H](N(C)CC3CC3)C2)COC(=O)C(C)(C)C(=O)[C@H](C)[C@H]1O[C@@H]1O[C@H](C)C[C@H](N(C)C)[C@H]1O` [Compound 138, (3R,6R,8R,9R,10R)-3-(((1r,3S)-3-((cyclopropylmethyl)(methyl)amino)cyclobutyl)methyl)-9-(((2S,3R,4S,6R)-4-(dimethylamino)-3-hydroxy-6-methyltetrahydro-2H-pyran-2-yl)oxy)-8-methoxy-4,6,8,10,12,12-hexamethyl-1-oxa-4-azacyclotridecane-11,13-dione], for which the MIC in assay [1] is more than 32 µg/mL; in assay [2], less than 4 µg/mL; in assay [3], less than 4 µg/mL; in assay [4], more than 32 µg/mL; in assay [5], less than 4 µg/mL; in assay [6], less than 4 µg/mL.

`CO[C@]1(C)C[C@@H](C)CN(CC(C)C)[C@@H](CCCN(C)C(C)C)COC(=O)C(C)(C)C(=O)[C@H](C)[C@H]1O[C@@H]1O[C@H](C)C[C@H](N(C)C)[C@H]1O` [Compound 8, (3S,6R,8R,9R,10R)-9-(((2S,3R,4S,6R)-4-(dimethylamino)-3-hydroxy-6-methyltetrahydro-2H-pyran-2-yl)oxy)-4-isobutyl-3-(3-(isopropyl(methyl)amino)propyl)-8-methoxy-6,8,10,12,12-pentamethyl-1-oxa-4-azacyclotridecane-11,13-dione]: the MIC was more than 32 µg/mL in assay [1]; 4 to 32 µg/mL (≈ 6.1 to 48.8 µM) in assay [2]; 4 to 32 µg/mL (≈ 6.1 to 48.8 µM) in assay [3]; more than 32 µg/mL in assay [4]; less than 4 µg/mL in assay [5]; less than 4 µg/mL in assay [6].

As to `CO[C@]1(C)C[C@@H](C)CN(C)[C@H](CC2CCN(CC3CCCCC3)CC2)COC(=O)C(C)(C)C(=O)[C@H](C)[C@H]1O[C@@H]1O[C@H](C)C[C@H](N(C)C)[C@H]1O` [Compound 55], the MIC in assay [1] was more than 32 µg/mL; in assay [2], less than 4 µg/mL; in assay [3] it was less than 4 µg/mL; in assay [4], more than 32 µg/mL; in assay [5] it was less than 4 µg/mL; in assay [6], 4 to 32 µg/mL (≈ 5.76 to 46.1 µM).

As for `CO[C@]1(C)C[C@@H](C)CN(C)[C@@H](CCCN2CCCC2)COC(=O)C(C)(C)C(=O)[C@H](C)[C@H]1O[C@@H]1O[C@H](C)C[C@H](N(C)C)[C@H]1O` [Compound 107, (3S,6R,8R,9R,10R)-9-(((2S,3R,4S,6R)-4-(dimethylamino)-3-hydroxy-6-methyltetrahydro-2H-pyran-2-yl)oxy)-8-methoxy-4,6,8,10,12,12-hexamethyl-3-(3-(pyrrolidin-1-yl)propyl)-1-oxa-4-azacyclotridecane-11,13-dione], the MIC in assay [1] is more than 32 µg/mL; in assay [2], less than 4 µg/mL; in assay [3], less than 4 µg/mL; in assay [4], more than 32 µg/mL; in assay [5], less than 4 µg/mL; in assay [6], 4 to 32 µg/mL (≈ 6.54 to 52.3 µM).

Take `CO[C@]1(C)C[C@@H](C)CN(C)[C@H]([C@@H](O)C2CCN(CC3CC3)CC2)COC(=O)C(C)(C)C(=O)[C@H](C)[C@H]1O[C@@H]1O[C@H](C)C[C@H](N(C)C)[C@H]1O` [Compound 26]: the MIC in assay [1], in assay [4] and in assay [6] was more than 32 µg/mL each time. Moreover, the “MIC K. pneumoniae MP-546” value in assay [2] (CLSI broth dilution) was “++ (values of greater than 4 mg/L and less than or equal to 32 mg/L)”. Further, the “MIC K. pneumoniae MP-648” value in assay [3] (CLSI broth dilution) is “++ (values of greater than 4 mg/L and less than or equal to 32 mg/L)”. In assay [5] (CLSI broth dilution), the “MIC E. coli MP-4” value was “+++ (values less than or equal to 4 mg/L)”.

On to `CO[C@]1(C)C[C@@H](C)CN(C)[C@H]([C@H](O)CCN2CCCC2)COC(=O)C(C)(C)C(=O)[C@H](C)[C@H]1O[C@@H]1O[C@H](C)C[C@H](N(C)C)[C@H]1O` [Compound 78, (3S,6R,8R,9R,10R)-9-(((2S,3R,4S,6R)-4-(Dimethylamino)-3-hydroxy-6-methyltetrahydro-2H-pyran-2-yl)oxy)-3-((R)-1-hydroxy-3-(pyrrolidin-1-yl)propyl)-8-methoxy-4,6,8,10,12,12-hexamethyl-1-oxa-4-azacyclotridecane-11,13-dione], for which the MIC in assay [1] was more than 32 µg/mL; in assay [2], less than 4 µg/mL; in assay [3], less than 4 µg/mL; in assay [4] it was more than 32 µg/mL; in assay [5], less than 4 µg/mL; in assay [6], less than 4 µg/mL.

For the compound `CCN1CCC(C[C@@H]2COC(=O)C(C)(C)C(=O)[C@H](C)[C@@H](O[C@@H]3O[C@H](C)C[C@H](N(C)C)[C@H]3O)[C@](C)(OC)C[C@@H](C)CN2CC)CC1` [Compound 118, (3R,6R,8R,9R,10R)-9-(((2S,3R,4S,6R)-4-(dimethylamino)-3-hydroxy-6-methyltetrahydro-2H-pyran-2-yl)oxy)-4-ethyl-3-((1-ethylpiperidin-4-yl)methyl)-8-methoxy-6,8,10,12,12-pentamethyl-1-oxa-4-azacyclotridecane-11,13-dione], the MIC in assay [1] is more than 32 µg/mL; in assay [2], less than 4 µg/mL; in assay [3] it was less than 4 µg/mL; in assay [4] it was 4 to 32 µg/mL (≈ 6.25 to 50 µM); in assay [5] it was less than 4 µg/mL; in assay [6], 4 to 32 µg/mL (≈ 6.25 to 50 µM).
